Results from patent publication US20100120690A1, “Polypeptides Having Antimicrobial Activity and Polynucleotides Encoding Same” (Novozymes Adenium Biotech A/S, priority 2005, published 2010).

System: Staphylococcus carnosus ATCC51365
Experiment: Yeast screening assay: radial diffusion assay of yeast supernatants
Type: cell-based
Set-up: key: An activity of 3 is better than Plectasin; An activity of 2 corresponds to the activity of Plectasin; 1 is worse than Plectasin
Conditions: yeast supernatant, clearing zone in radial diffusion assay
Experimental: A range of antimicrobial polypeptides, which are variants of SEQ ID NO: 1 (Plectasin), were tested for antimicrobial activity by expressing them in S. cerevisae and screening the supernatant of the yeast transformants for antimicrobial activity against Staphylococcus carnosus ATCC51365.
Radial Diffusion Assay was carried out as described in Methods in Molecular Biology, Vol. 78, Antibacterial peptide protocol, William M. Shafer, Human Press.
200-300 yeast transformant colonies were plated on 14 cm round plates containing 25 mL SC growth medium supplemented with 1.5% galactose, 0.5% glucose and 1.5% agarose. Plates were incubated for three hours at room temperature, overlaid with 25 mL of the same growth medium and allowed to grow for three days at 30° C. Then the plates were overlaid with 25 mL of LB growth medium containing 1.5% agarose and 10^5 cells of the indicator strain Staphylococcus carnosus and incubated at 30° C. overnight to allow growth of the bacterial cells. Next day, the plates were stained with 1.5 mM MTT to facilitate visualization of the clearing zones.
Yeast colonies creating clearing zones were transferred to microtiter plates containing 200 micro-L of SC growth medium supplemented with 2% glucose and ampicillin (100 mg/L). Such plates designated “master plates” were incubated for 2 days at 30° C. with shaking at 450 rpm to allow yeast growth.
10 micro-L SC growth medium from each well of the master plates were transferred to new microtiter plates containing 200 micro-L SC growth medium with 1.5% galactose and 0.5% glucose. These plates were called daughter plates and were incubated for 3 days at 30° C. under 450 rpm shaking to allow yeast growth and peptide synthesis.
Finally a Radial Diffusion Assay (RDA) was performed following the protocol described in Methods in Molecular Biology to analyse and quantify the antimicrobial activity of the yeast supernatants against S. carnosus.
Briefly, 30 mL of minimal underlay medium containing 1% agarose and 5×10^5 cfu/mL of S. carnosus was poured in an omnitray plate (Nunc, 242811). A Nunc TSP plate (#445497) was inserted immediately on the plate to allow a 96 well pattern formation. Once the media had solidified, the TSP plate was removed and 10 micro-L of yeast supernatant samples were applied on the holes. Plates were incubated 3 hours at 37° C. and overlaid with 15 mL of LB agar growth medium. Finally, plates were incubated overnight at 37° C. and coloured with 1.5 mM MTT to visualize the clearing zones.
Inspection and measurements of the clearing zones was performed on the plates. The corresponding yeast clones resulting in clearing zones of similar or increased size than the clones encoding for wild type plectasin were picked from the master plates and transferred to agar plates containing SC growth medium with 2% glucose and ampicillin (100 mg/L). Such plates were incubated for further 2 days at 30° C. to allow yeast growth. Subsequently, colony PCR was performed followed by sequence analysis to identify amino acid changes in the plectasin sequence.
An activity of 2 corresponds to the activity of Plectasin. An activity of 3 is better than Plectasin, and 1 is worse than Plectasin.

In order of rising “Activity (antimicrobial activity relative to the activity of plectasin)” value:
1. GFGCNGPWDEDDMQCHNHCKSIKGYKGGYCAKGGFVCRCY [Mutation K38R]  2
2. GFGCNGPWDEDDMQCHNHCKSIKGYKGGYCAKGGHVCKCY [Mutation F35H]  2
3. GFGCNGPWDEDDMQCHNHCKSIKGYKGGYCAKGGIVCKCY [Mutation F35I]  2
4. GFGCNGPWDEDDMQCHNHCKSIKGYKGGYCAKGGMVCKCY [Mutation F35M]  2
5. GFGCNGPWDEDDMQCHNHCKSIKGYKGGYCAKGGVVCKCY [Mutation F35V]  2
6. GFGCNGPWDEDDMQCHNHCKSIKGYKGGYCAKGGWVCKCY [Mutation F35W]  2
7. GFGCNGPWDEDDMQCHNHCKSIKGYKGGYCAKGHFVCKCY [Mutation G34H]  2
8. GFGCNGPWDEDDMQCHNHCKSIKGYKGGYCAKGWFVCKCY [Mutation G34W]  2
9. GFGCNGPWDEDDMQCHNHCKSIKGYKGGYCAKNGFVCKCY [Mutation G33N]  2
10. GFGCNGPWDEDDMQCHNHCKSIKGYKGGYCAKSGFVCKCY [Mutation G33S]  2
11. GFGCNGPWDEDDMQCHNHCKSIKGYKGGYCAKTGFVCKCY [Mutation G33T]  2
12. GFGCNGPWDEDDMQCHNHCKSIKGYKGGYCARGGFVCKCY [Mutation K32R]  2
13. GFGCNGPWDEDDMQCHNHCKSIKGYKGGYCARGKFVCKCY [K32R + G34K]  2
14. GFGCNGPWDEDDMQCHNHCKSIKGYKGGYCATGGFVCKCY [Mutation K32T]  2
15. GFGCNGPWDEDDMQCHNHCKSIKGYKGGYCEKGGFVCKCY [Mutation A31E]  2
16. GFGCNGPWDEDDMQCHNHCKSIKGYKGGYCHKGGFVCKCY [Mutation A31H]  2
17. GFGCNGPWDEDDMQCHNHCKSIKGYKGGYCIKGGFVCKCY [Mutation A31I]  2
18. GFGCNGPWDEDDMQCHNHCKSIKGYKGGYCRKGGFVCKCY [Mutation A31R]  2
19. GFGCNGPWDEDDMQCHNHCKSIKGYKGGYCSKGGFVCKCY [Mutation A31S]  2
20. GFGCNGPWDEDDMQCHNHCKSIKGYKGGYCVKGGFVCKCY [Mutation A31V]  2
21. GFGCNGPWDEDDMQCHNHCKSIKGYKGGYCAKGGLVCKCY [Mutation F35L]  3
22. GFGCNGPWDEDDMQCHNHCKSIKGYKGGYCAKGKFVCKCY [Mutation G34K]  3
23. GFGCNGPWDEDDMQCHNHCKSIKGYKGGYCAKGRFVCKCY [Mutation G34R]  3
24. GFGCNGPWDEDDMQCHNHCKSIKGYKGGYCAKKGFVCKCY [Mutation G33K]  3
25. GFGCNGPWDEDDMQCHNHCKSIKGYKGGYCAKQGFVCKCY [Mutation G33Q]  3
26. GFGCNGPWDEDDMQCHNHCKSIKGYKGGYCAKRGFVCKCY [Mutation G33R]  3
27. GFGCNGPWDEDDMQCHNHCKSIKGYKGGYCKKGGFVCKCY [Mutation A31K]  3
28. GFGCNGPWDEDDMQCHNHCKSIKGYKGGYCQKGGFVCKCY [Mutation A31Q]  3
29. GFGCNGPWDEDDMQCHNHCKSIKGYKGGYCTKGGFVCKCY [Mutation A31T]  3
30. GFGCNGPWDEDDMQCHNHCKSIKGYKGGYCYKGGFVCKCY [Mutation A31Y]  3
